# Activity calls are given as the source filed them. The calls are words filed in the database; no cut-off is given here.
# How the values were obtained:
# MDA-MB-435 [1] = assay: Antiproliferative activity against human MDA-MB-435 cells assessed as growth inhibition at 10 uM after 72 hrs by SRB assay; assay type: functional; conditions: MDA-MB-435, 72 h, read-out: GI
# MDA-MB-231 [2] = assay: Antiproliferative activity against human MDA-MB-231 cells assessed as growth inhibition at 10 uM after 72 hrs by SRB assay; assay type: functional; conditions: MDA-MB-231, 72 h, read-out: GI
# PC-3 = assay: Antiproliferative activity against human PC3 cells after 72 hrs by SRB assay; assay type: functional, cell-based; conditions: PC-3, 72 h
# HepG2 = assay: Antiproliferative activity against human HepG2 cells after 72 hrs by SRB assay; assay type: functional, cell-based; conditions: HepG2, 72 h
# MDA-MB-231 [3] = assay: Antiproliferative activity against human MDA-MB-231 cells after 72 hrs by SRB assay; assay type: functional, cell-based; conditions: MDA-MB-231, 72 h
# MDA-MB-435 [4] = assay: Antiproliferative activity against human MDA-MB-435 cells after 72 hrs by SRB assay; assay type: functional, cell-based; conditions: MDA-MB-435, 72 h
# Nucleic Acid [5] = assay: Induction of DNA intercalation in Escherichia coli pBR322 plasmid DNA assessed as supercoiled DNA formation at 100 uM after 1 hr by agarose gel electrophoresis; assay type: nucleic-acid assay
# Nucleic Acid [6] = assay: Induction of DNA intercalation in Escherichia coli pBR322 plasmid DNA assessed as supercoiled DNA formation at 10 ug/ml after 1 hr by agarose gel electrophoresis; assay type: nucleic-acid assay
# MDA-MB-231 [7] = assay: Inhibition of topoisomerase in human MDA-MB-231 cells assessed as ATM phosphorylation at Ser1981 residue at 10 uM after 24 hrs by western blot analysis; assay type: cell-based
# [8] = biological target: DNA topoisomerase 2-alpha (Homo sapiens) (UniProt P11388); conditions: 100 uM
# Description: Inhibition of human recombinant topoisomerase 2 alpha assessed as topoisomerase poison activity by measuring generation of linear DNA using circular supercoiled DNA at 100 uM by agarose gel electrophoresis
# [9] = biological target: DNA topoisomerase 2-alpha (Homo sapiens) (UniProt P11388); assay: Inhibition of human recombinant topoisomerase 2alpha assessed as relaxation of pBR322 DNA at 100 uM after 30 mins by agarose gel electrophoresis
# Bos taurus = species: Bos taurus; assay: Inhibition of calf thymus topoisomerase 1 assessed as relaxation of pBR322 DNA at 100 uM after 30 mins by agarose gel electrophoresis
# DNA topoisomerase 2-alpha (Homo sapiens), sequence (P11388 whole entry): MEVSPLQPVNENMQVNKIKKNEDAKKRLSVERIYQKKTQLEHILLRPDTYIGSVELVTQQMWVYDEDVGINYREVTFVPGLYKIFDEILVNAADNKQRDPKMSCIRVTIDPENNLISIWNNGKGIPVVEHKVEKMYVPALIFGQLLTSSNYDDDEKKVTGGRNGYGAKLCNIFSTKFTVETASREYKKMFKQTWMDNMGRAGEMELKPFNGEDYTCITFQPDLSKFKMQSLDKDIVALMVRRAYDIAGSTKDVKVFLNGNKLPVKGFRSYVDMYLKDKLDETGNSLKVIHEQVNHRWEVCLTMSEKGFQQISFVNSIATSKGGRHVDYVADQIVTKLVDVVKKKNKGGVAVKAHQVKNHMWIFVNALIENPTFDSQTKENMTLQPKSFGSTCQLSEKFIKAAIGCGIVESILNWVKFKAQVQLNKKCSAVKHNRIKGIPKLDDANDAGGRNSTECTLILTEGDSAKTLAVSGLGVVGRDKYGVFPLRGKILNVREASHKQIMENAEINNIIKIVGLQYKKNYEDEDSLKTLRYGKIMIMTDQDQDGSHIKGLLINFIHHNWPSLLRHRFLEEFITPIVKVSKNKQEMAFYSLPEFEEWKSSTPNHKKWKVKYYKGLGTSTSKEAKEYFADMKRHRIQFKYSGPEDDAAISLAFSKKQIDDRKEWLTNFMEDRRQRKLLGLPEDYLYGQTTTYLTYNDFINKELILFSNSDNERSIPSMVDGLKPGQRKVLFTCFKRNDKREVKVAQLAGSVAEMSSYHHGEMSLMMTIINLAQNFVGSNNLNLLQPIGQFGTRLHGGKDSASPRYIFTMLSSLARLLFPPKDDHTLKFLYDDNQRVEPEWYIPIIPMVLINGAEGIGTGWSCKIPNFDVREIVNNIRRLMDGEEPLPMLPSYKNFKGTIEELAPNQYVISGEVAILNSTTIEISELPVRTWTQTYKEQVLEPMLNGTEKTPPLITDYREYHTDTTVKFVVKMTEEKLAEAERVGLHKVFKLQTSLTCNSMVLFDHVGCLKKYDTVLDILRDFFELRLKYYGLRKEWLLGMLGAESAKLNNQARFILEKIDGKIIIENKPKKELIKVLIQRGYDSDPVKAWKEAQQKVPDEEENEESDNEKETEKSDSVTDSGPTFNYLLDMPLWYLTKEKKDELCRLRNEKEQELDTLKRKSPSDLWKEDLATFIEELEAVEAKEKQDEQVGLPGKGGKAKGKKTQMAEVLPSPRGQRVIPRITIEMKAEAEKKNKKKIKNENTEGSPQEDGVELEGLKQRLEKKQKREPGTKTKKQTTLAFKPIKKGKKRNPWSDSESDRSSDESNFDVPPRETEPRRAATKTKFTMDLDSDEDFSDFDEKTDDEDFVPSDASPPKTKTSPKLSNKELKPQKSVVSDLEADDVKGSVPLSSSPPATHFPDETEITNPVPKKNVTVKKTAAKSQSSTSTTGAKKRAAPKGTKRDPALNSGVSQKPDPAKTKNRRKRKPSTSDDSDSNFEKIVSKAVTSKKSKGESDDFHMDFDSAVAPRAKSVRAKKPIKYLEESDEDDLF
smiles,measurement,setting,value
OCc1ccc(-c2cc3cc(O)ccc3o2)cc1,inhibition of growth at 10 µM,MDA-MB-435 [1],42.6%
same,inhibition of growth at 10 µM,MDA-MB-231 [2],10.6%
Oc1ccc2cc(-c3ccc4c(c3)OCO4)ccc2c1,inhibition of growth at 10 µM,MDA-MB-435 [1],86.9%
same,IC50,PC-3,10.8 µM
same,IC50,HepG2,2.6 µM
same,inhibition of growth at 10 µM,MDA-MB-231 [2],66.3%
same,IC50,MDA-MB-231 [3],8.5 µM
same,IC50,MDA-MB-435 [4],3.9 µM
COc1cccc2c1C(=O)c1c(O)c3c(c(O)c1C2=O)C[C@@](O)(C(=O)CO)C[C@@H]3O[C@H]1C[C@H](N)[C@H](O)[C@H](C)O1,Activity,Nucleic Acid [5],Active
CC[N+](C)(CC)CCC[n+]1c(-c2ccccc2)c2cc(N)ccc2c2ccc(N)cc21,Activity,Nucleic Acid [6],Active
COc1cc([C@@H]2c3cc4c(cc3[C@@H](O[C@@H]3O[C@@H]5CO[C@@H](C)O[C@H]5[C@H](O)[C@H]3O)[C@H]3COC(=O)[C@H]23)OCO4)cc(OC)c1O [ETOPOSIDE],inhibition of growth at 10 µM,MDA-MB-435 [1],96.1%
same,IC50,PC-3,1 µM
same,inhibition,MDA-MB-231 [7],Active
same,inhibition,[8],Active
same,IC50,HepG2,30 µM
same,inhibition of growth at 10 µM,MDA-MB-231 [2],71%
same,IC50,MDA-MB-231 [3],3.6 µM
same,IC50,MDA-MB-435 [4],1.7 µM
same,inhibition,[9],Active
CC[C@@]1(O)C(=O)OCc2c1cc1n(c2=O)Cc2cc3cc(O)ccc3nc2-1,inhibition,Bos taurus,Active
Oc1ccc(-c2cc3cc(O)ccc3o2)cc1,inhibition of growth at 10 µM,MDA-MB-435 [1],13.8%
same,inhibition of growth at 10 µM,MDA-MB-231 [2],29.5%
O=[N+]([O-])c1cccc(-c2cc3cc([N+](=O)[O-])ccc3o2)c1,inhibition of growth at 10 µM,MDA-MB-435 [1],4.3%
same,inhibition of growth at 10 µM,MDA-MB-231 [2],17.3%
Oc1ccc2oc(-c3ccc4c(c3)OCO4)cc2c1,inhibition of growth at 10 µM,MDA-MB-435 [1],11.2%
same,inhibition of growth at 10 µM,MDA-MB-231 [2],3.6%

# — ChEMBL document CHEMBL3621070, “Design and synthesis of 2-phenylnaphthalenoids and 2-phenylbenzofuranoids as DNA topoisomerase inhibitors and antitumor agents” (Eur J Med Chem, 2015)
